In patent US12023319B2, “Carboxylic acid aromatic amides” (priority 2016, dated 2024):

Key:
[1] = biological target: T1, human Bradykinin B1 receptor (Homo sapiens, UniProt P46663); assay: Calcium flux assay (FLIPR), CHO-K1 cells expressing human Bradykinin B1 receptor, absence of 0.1% BSA (hB1 free IC50); type: cell-based; details: absence of 0.1% BSA in assay buffer
T1 construct: host or cells: CHO-K1
T1 sequence (P46663 1-353): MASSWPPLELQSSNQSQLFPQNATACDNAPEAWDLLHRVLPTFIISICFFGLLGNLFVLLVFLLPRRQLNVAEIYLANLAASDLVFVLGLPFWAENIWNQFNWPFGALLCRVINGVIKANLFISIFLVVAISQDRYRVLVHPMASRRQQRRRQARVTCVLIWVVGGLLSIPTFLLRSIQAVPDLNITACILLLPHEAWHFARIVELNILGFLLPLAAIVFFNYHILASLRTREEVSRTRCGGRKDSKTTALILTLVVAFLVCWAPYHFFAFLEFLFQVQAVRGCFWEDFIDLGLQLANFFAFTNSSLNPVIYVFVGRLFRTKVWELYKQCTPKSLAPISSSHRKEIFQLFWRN
Procedure, shortened: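 Peak FLIPR fluorescence (538 nm) after B1 agonist peptide addition gave IC50s, scaled between DMSO and full block by 20 µM Lys-(Des-Arg-Leu)-Bradykinin. Compounds were preincubated 30 min at 28° C with calcium-dye-loaded CHO-K1 cells expressing human B1, at 8 concentrations in triplicate, 1% DMSO final.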

[2] = tested on: B6-Mice expressing the human B1 receptor; assay: Mouse model for peritonitis (thioglycollate induced, peroxidase activity in lavage); type: in vivo; details: p.o. 30, 100 mg/kg, lavage 24 h after induction, significantly, FIG. 7
Description: 6. Mouse Model for Peritonitis
Black 6 (B6)-Mice expressing the human B1 receptor, lacking the murine B1 receptors which were specifically generated (B6-hBDKRB1 <tm1Arte>/N) and employed for a thioglycollate induced peritonitis model to test for effects of Bradykinin B1 receptor antagonism on peritoneal inflammation and related leukocyte trafficking which reflects the mode of actions underlying endometriosis.
Animals were treated p.o. with Compound Example 3 (doses: 30 mg/kg, 100 mg/kg) or respective vehicle (10% DMSO+90% phosphate buffered saline (PBS) alone 1 h before i.p. application of 1 ml 4% thioglycollate medium (in sterile PBS, matured for >4 weeks). The treatment with vehicle or Compund Example 3 was repeated 3 and 24 hours after induction of peritonitis. 24 h after peritonitis induction the animals were sacrificed and a lavage of peritoneal fluid performed. The resulting lavage is analysed for peroxidase enzyme activity which is reflecting number of activated neutrophils in the peritoneal cavity by peroxidase activity assay as follows:
Tetramethylbenzidine (TMB) dihydrochloride is used as a sensitive chromogen substrate for peroxidase. […]
Changes in optical densities (OD) are monitored in an ELISA plate-reader at 450 nm at 25° Celsius against the mixture of all solutions without the added sample homogenate. […]

Row | Structure (SMILES) | IC50 [1] [nM] | signal specific for neutrophil influx into inflamed tissue (peroxidase activity) [2]
1 | O=C(O)c1cc(NC(=O)C2(c3ccc(C(F)(F)F)cc3F)CC2)ccc1-c1cc2ccccc2s1 [Example 1, 2-(1-Benzothiophen-2-yl)-5-[({1-[2-fluoro-4-(trifluoromethyl)phenyl]cyclopropyl}carbonyl)amino]benzoic acid] | 6.5 | –
2 | CCC(F)(F)c1ccc(-c2ccc(NC(=O)C3(c4ccc(C(F)(F)F)cc4F)CC3)cc2C(=O)O)cn1 [Example 2, 2-[6-(1,1-Difluoropropyl)pyridin-3-yl]-5-[({1-[2-fluoro-4-(trifluoromethyl)-phenyl]cyclopropyl}carbonyl)amino]benzoic acid] | 24 | –
3 | O=C(O)c1cc(NC(=O)C2(c3ccc(C(F)(F)F)cc3F)CC2)ccc1-c1cnn(C2CCC2)c1 [Example 3, 2-(1-Cyclobutyl-1H-pyrazol-4-yl)-5-[({1-[2-fluoro-4-(trifluoromethyl)phenyl]cyclopropyl}carbonyl)amino]benzoic acid] | 18 | reduced
4 | O=C(O)c1cc(NC(=O)C2(c3ccc(OC(F)(F)F)cc3F)CC2)ccc1-c1ccc(C(F)F)nc1 [Example 5, 2-[6-(Difluoromethyl)pyridin-3-yl]-5-[({1-[2-fluoro-4-(trifluoromethoxy)phenyl]cyclopropyl}carbonyl)amino]benzoic acid] | 86 | –
5 | O=C(O)c1cc(NC(=O)C2(c3ccc(C(F)(F)F)cc3F)CC2)ccc1-c1ccc(C(F)(F)F)nc1 [Example 6, 5-[({1-[2-Fluoro-4-(trifluoromethyl)phenyl]cyclopropyl}carbonyl)amino]-2-[6-(trifluoromethyl)pyridin-3-yl]benzoic acid] | 210 | –
6 | O=C(O)c1cc(NC(=O)C2(c3ccc(C(F)(F)F)cc3F)CC2)cc(F)c1-c1ccc(C(F)(F)F)nc1 [Example 29, 3-Fluoro-5-[({1-[2-fluoro-4-(trifluoromethyl)phenyl]cyclopropyl}carbonyl)amino]-2-[6-(trifluoromethyl)pyridin-3-yl]benzoic acid] | 13 | –
7 | O=C(O)c1cc(NC(=O)C2(c3ccc(C(F)(F)F)cc3F)CC2)cc(F)c1-c1cnn(C2CCC2)c1 [Example 42, 2-(1-Cyclobutyl-1H-pyrazol-4-yl)-3-fluoro-5-[({1-[2-fluoro-4-(trifluoromethyl)phenyl]cyclopropyl}carbonyl)amino]benzoic acid] | 6.3 | –
